In this experiment the test system is T25 (DNA, single strand, C6-amino dT at 8 of strand 2) TGGCGACGGCAGCGAGGCTTTTTTTTTTTTTTTTTTTTTTTTT/GCCTCGCTGCCGTCGCCA
Put plainly: Cy3 fluorescence quenching. As to conditions: 100 mM KCl; 10 mM Tris-HCl pH 7.5, room temperature, 50 nM DNA; negative control, nonspecific quenching taken as background.

For `CCc1c(C)c2cc3nc(cc4nc(cc5c(CC)c(C)c(cc1[nH]2)n5C)C(C)=C4CCC(=O)O)C(CCC(=O)O)=C3C`, the binding result was “weak”.

The record behind these values is article PMC4081081 (2014).
